The text below walks through data of ChEMBL document CHEMBL1128524, “The histamine H1-receptor antagonist binding site. A stereoselective pharmacophoric model based upon (semi-)rigid H1-antagonists and including a known interaction site on the receptor” (J Med Chem, 1995).

Assay [1] has as its target T1, Histamine H1 receptor (Cavia porcellus, UniProt P31389). Kind of assay: Inhibition of [3H]mepyramine binding with histamine H1 receptor in guinea pig cerebellum membranes after 30 min. The class given is cell membranes, Membrane.
Assay [2] has as its target T1, Histamine H1 receptor. Nature of the assay: (§1) Potency against histamine H1 receptor on guinea pig ileum.
Assay [3] addresses T1, Histamine H1 receptor. The assay is described as §1. The settings on record: read-out: pA2 (converted). The class given is tissue-based.
Assay [4] deals with Histamine H1 receptor (Cavia porcellus) (UniProt P31389). The assay is described as §1. The class given is tissue-based.
In assay [5] the target is T1, Histamine H1 receptor. Kind of assay: Inhibition of [3H]mepyramine binding with histamine H1 receptor in guinea pig cerebellum membranes. Format: cell membranes, Membrane.

T1 sequence (P31389 whole entry): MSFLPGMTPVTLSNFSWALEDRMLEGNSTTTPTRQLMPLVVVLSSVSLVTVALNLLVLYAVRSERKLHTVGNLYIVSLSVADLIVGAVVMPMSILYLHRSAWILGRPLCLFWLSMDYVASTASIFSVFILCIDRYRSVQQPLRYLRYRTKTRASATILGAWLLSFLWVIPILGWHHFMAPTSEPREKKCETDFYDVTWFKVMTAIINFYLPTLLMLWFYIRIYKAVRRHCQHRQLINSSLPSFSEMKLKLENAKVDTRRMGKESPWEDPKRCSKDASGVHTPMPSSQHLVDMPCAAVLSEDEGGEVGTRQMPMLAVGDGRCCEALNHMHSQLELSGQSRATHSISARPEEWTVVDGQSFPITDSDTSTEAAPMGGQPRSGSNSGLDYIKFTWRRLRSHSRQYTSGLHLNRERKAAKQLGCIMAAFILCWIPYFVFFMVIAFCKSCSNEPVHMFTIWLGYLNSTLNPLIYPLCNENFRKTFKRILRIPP
Sequence of Histamine H1 receptor (Cavia porcellus) (P31389 whole entry): as above

On Histamine H1 receptor [1], `NC1=NCC2c3ccccc3Cc3ccccc3N12` (configuration not stated) [EPINASTINE] gave a Ki of 1.41 nM. The IC50 at Histamine H1 receptor [2] was 1.58 nM.

Regarding `Cc1ccc(/C(=C\CN2CCCC2)c2ccccn2)cc1` [TRIPROLIDINE], the Ki at Histamine H1 receptor [1] is 1.66 nM. In addition, the Kb at Histamine H1 receptor [3] is 0.126 nM.

At Histamine H1 receptor [1], `Cc1ccc([C@H](OCCN(C)C)c2ccccc2)cc1` had a Ki of 12.3 nM. Moreover, on Histamine H1 receptor [3], the Kb was 2 nM.

For `c1ccc2c(c1)Sc1ccccc1N2C1CN2CCC1CC2` (configuration not stated), in assay [4], the pED50 was determined as 7.3.

For the compound `c1ccc2c(c1)Sc1ccccc1N2CC1CN2CCC1CC2` (configuration not stated), in assay [4], the pED50 is 7.2.

`Cc1ccc([C@@H](OCCN(C)C)c2ccccc2)cc1` gave an inhibitory constant (Ki) at Histamine H1 receptor [5] of 12.3 nM. In addition, the Kb on Histamine H1 receptor [3] is 158 nM.

The compound `CN1CCC2=C(C1)C(c1ccccc1)c1ccccc12` (configuration not stated) [PHENINDAMINE] had an inhibitory constant (Ki) on Histamine H1 receptor [1] of 6.31 nM. The Kb on Histamine H1 receptor [3] was 1.58 nM.
